This experiment deals with CD2F1 mice, L1210 leukemia ip, survival T/C. Put plainly: NCI In Vivo Anticancer Drug Screen. Data for tumor model L1210 Leukemia (intraperitoneal) in CD2F1 (CDF1) mice. The following applies: higher = longer survival. An outline of the steps: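 Ratio T/C, where T is the treated-group value and C the vehicle-dosed control value, from mice implanted with a transplantable tumor.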

[1] abbreviates: endpoint: mean survival time, dose: 100.0 mg/kg/injection, schedule: Q01DX009 (ip), vehicle: saline with Tween-80.
Setting [2] is: endpoint: mean survival time, dose: 200.0 mg/kg/injection, schedule: Q01DX009 (ip), vehicle: saline with Tween-80.
Setting [3] is: endpoint: mean survival time, dose: 400.0 mg/kg/injection, schedule: Q01DX009 (ip), vehicle: saline with Tween-80.
Setting [4] is: endpoint: mean survival time, dose: 100.0 mg/kg/injection, schedule: Q04DX003 (ip), vehicle: saline with Tween-80.
Where [5] appears, read: endpoint: mean survival time, dose: 200.0 mg/kg/injection, schedule: Q04DX003 (ip), vehicle: saline with Tween-80.
Setting [6] is: endpoint: mean survival time, dose: 400.0 mg/kg/injection, schedule: Q04DX003 (ip), vehicle: saline with Tween-80.
Where [7] appears, read: endpoint: mean survival time, dose: 25.0 mg/kg/injection, schedule: Q04DX002 (ip), vehicle: saline with Tween-80.
Setting [8] is: endpoint: mean survival time, dose: 50.0 mg/kg/injection, schedule: Q04DX002 (ip), vehicle: saline with Tween-80.
Setting [9] is: endpoint: mean survival time, dose: 100.0 mg/kg/injection, schedule: Q04DX002 (ip), vehicle: saline with Tween-80.
Where [10] appears, read: endpoint: mean survival time, dose: 100.0 mg/kg/injection, schedule: Q04DX003 (ip), vehicle: saline.
Where [11] appears, read: endpoint: mean survival time, dose: 200.0 mg/kg/injection, schedule: Q04DX003 (ip), vehicle: saline.
The mark [12] stands for this setting: endpoint: mean survival time, dose: 50.0 mg/kg/injection, schedule: Q01DX009 (ip), vehicle: saline.
Setting [13] is: endpoint: mean survival time, dose: 12.5 mg/kg/injection, schedule: Q01DX009 (ip), vehicle: saline with Tween-80.
[14] abbreviates: endpoint: mean survival time, dose: 25.0 mg/kg/injection, schedule: Q01DX009 (ip), vehicle: saline with Tween-80.
Setting [15] is: endpoint: mean survival time, dose: 50.0 mg/kg/injection, schedule: Q01DX009 (ip), vehicle: saline with Tween-80.

Drawing on PubChem BioAssay AID256 (DTP/NCI, 2004), this text covers T/C for 22 compounds.

“And” between values parts separate entries of the source, which are not always exact repeats. Equal entries are not always repeated. Toxic doses and inconclusive results are not listed.

As to `CN(C)CCCN=c1c2ccccc2n(C)c2[nH]c(=O)n(C)c(=O)c12`, the T/C (endpoint: median survival time, dose: 3.75 mg/kg/injection, schedule: Q01DX005 (ip), vehicle: saline) was 105 % of control; the T/C (endpoint: median survival time, dose: 7.5 mg/kg/injection, schedule: Q01DX005 (ip), vehicle: saline) is 109 % of control; the T/C (endpoint: median survival time, dose: 10.8 mg/kg/injection, schedule: Q01DX005 (ip), vehicle: saline) was 107 % of control; the T/C (endpoint: median survival time, dose: 15.0 mg/kg/injection, schedule: Q01DX005 (ip), vehicle: saline) is 111 % of control and 112 % of control; the T/C (endpoint: median survival time, dose: 18.0 mg/kg/injection, schedule: Q01DX005 (ip), vehicle: saline) was 123 % of control; the T/C (endpoint: median survival time, dose: 30.0 mg/kg/injection, schedule: Q01DX005 (ip), vehicle: saline) is 116 % of control and 124 % of control. Moreover, the T/C is, setting by setting: (endpoint: median survival time, dose: 50.0 mg/kg/injection, schedule: Q01DX005 (ip), vehicle: saline) 119 % of control; (endpoint: median survival time, dose: 60.0 mg/kg/injection, schedule: Q01DX005 (ip), vehicle: saline) 120 % of control and 101 % of control; (endpoint: median survival time, dose: 120.0 mg/kg/injection, schedule: Q01DX005 (ip), vehicle: saline) 119 % of control.
Consider `Cc1cc2ncn(C(=O)Nc3ccccc3)c2cc1C`, for which the T/C is 105 % of control under setting [1], 94 % of control under setting [2] and 96 % of control under setting [3].
The matching figures for `CC[C@H](CC[C@@H](C)[C@H]1CC[C@H]2[C@@H]3CC=C4C[C@@H](O)CC[C@]4(C)[C@H]3CC[C@]12C)C(C)C`: 89 % of control, 101 % of control and 95 % of control.
For `CC1=NN(c2ccccc2)C(=O)C1CC1C(=O)N(c2ccccc2)N=C1C` (centres undefined), the T/C runs as follows: under setting [1], 101 % of control; under setting [4], 96 % of control; under setting [2], 107 % of control; under setting [5], 92 % of control; under setting [3], 101 % of control; under setting [6], 88 % of control.
For the compound `O=C(COc1ccccc1-c1ccccc1)Nc1ccccc1-c1ccccc1`, the T/C under setting [7] was 98 % of control, the T/C under setting [8] is 98 % of control and the T/C under setting [9] is 94 % of control.
Consider `CSc1ccc(OC(=O)C(C)NC(=O)C(CO)NC(=O)OCc2ccccc2)cc1` (centres undefined), for which the T/C reads like this: under setting [8], 95 % of control; under setting [9], 92 % of control; (endpoint: mean survival time, dose: 200.0 mg/kg/injection, schedule: Q04DX002 (ip), vehicle: saline with Tween-80) 95 % of control; (endpoint: mean survival time, dose: 400.0 mg/kg/injection, schedule: Q04DX002 (ip), vehicle: saline with Tween-80) 92 % of control.
Take `CCOC(=O)C[n+]1ccc(C(=O)c2cc3ccccc3[nH]2)cc1`: the T/C is, setting by setting: (endpoint: mean survival time, dose: 100.0 mg/kg/injection, schedule: Q01DX001 (ip), vehicle: saline with Tween-80) 97 % of control; (endpoint: mean survival time, dose: 200.0 mg/kg/injection, schedule: Q01DX001 (ip), vehicle: saline with Tween-80) 101 % of control; (endpoint: mean survival time, dose: 400.0 mg/kg/injection, schedule: Q01DX001 (ip), vehicle: saline with Tween-80) 93 % of control.
Regarding `CC(C)CC(CC(C)C)C(=O)C1C2CCC(O2)C1C(=O)C(CC(C)C)CC(C)C` (centres undefined), under setting [7], the T/C is 88 % of control.
In the case of `c1ccc2[nH]c(CCCCc3nc4ccccc4[nH]3)nc2c1`, the T/C by setting is: under setting [10], 104 % of control; under setting [11], 100 % of control.
For the compound `CS(=O)(=O)c1cnc2ccccc2n1`, the T/C was 97 % of control under setting [10]; 86 % of control under setting [11]; 95 % of control (endpoint: mean survival time, dose: 400.0 mg/kg/injection, schedule: Q04DX003 (ip), vehicle: saline).
`CC(Cl)(C(Cl)Cl)C(F)(F)F` (centres undefined): the T/C (endpoint: mean survival time, dose: 25.0 mg/kg/injection, schedule: Q01DX001 (ip), vehicle: saline) is 102 % of control; the T/C (endpoint: mean survival time, dose: 25.0 mg/kg/injection, schedule: Q01DX009 (ip), vehicle: saline) is 98 % of control; the T/C (endpoint: mean survival time, dose: 50.0 mg/kg/injection, schedule: Q01DX001 (ip), vehicle: saline) was 107 % of control; the T/C under setting [12] is 98 % of control; the T/C (endpoint: mean survival time, dose: 100.0 mg/kg/injection, schedule: Q01DX001 (ip), vehicle: saline) was 104 % of control and 108 % of control; the T/C (endpoint: mean survival time, dose: 100.0 mg/kg/injection, schedule: Q01DX009 (ip), vehicle: saline) is 98 % of control.
For `C[Si]1(C)N(c2ccccc2)[Si](C)(C)N(c2ccccc2)[Si](C)(C)N1c1ccccc1`, the T/C is, setting by setting: under setting [1], 105 % of control; under setting [4], 105 % of control; under setting [2], 107 % of control; under setting [5], 94 % of control; under setting [3], 106 % of control; under setting [6], 93 % of control.
With `CC(C)OC(=O)Oc1cccs1`, the T/C by setting is: under setting [13], 102 % of control; (endpoint: mean survival time, dose: 12.5 mg/kg/injection, schedule: Q04DX003 (ip), vehicle: saline sonified) 103 % of control; under setting [14], 96 % of control; (endpoint: mean survival time, dose: 25.0 mg/kg/injection, schedule: Q04DX003 (ip), vehicle: saline sonified) 97 % of control; under setting [15], 104 % of control; (endpoint: mean survival time, dose: 50.0 mg/kg/injection, schedule: Q04DX003 (ip), vehicle: saline sonified) 101 % of control.
In the case of `CC[N+](C)(CC)CCCOC(=O)c1ccccc1Oc1ccc(C)cc1`, the T/C under setting [12] was 102 % of control.
Regarding `O=C(O)CC(=O)O.[NH-]CCC1CCCC[N-]1.[Pt+2]` (centres undefined), the T/C by setting is: (endpoint: mean survival time, dose: 3.13 mg/kg/injection, schedule: Q04DX003 (ip), vehicle: distilled water + Tween-80) 111 % of control; (endpoint: mean survival time, dose: 6.25 mg/kg/injection, schedule: Q04DX003 (ip), vehicle: distilled water + Tween-80) 108 % of control; (endpoint: mean survival time, dose: 12.5 mg/kg/injection, schedule: Q04DX003 (ip), vehicle: distilled water + Tween-80) 114 % of control; (endpoint: mean survival time, dose: 25.0 mg/kg/injection, schedule: Q04DX003 (ip), vehicle: distilled water + Tween-80) 114 % of control; (endpoint: mean survival time, dose: 25.0 mg/kg/injection, schedule: Q04DX003 (ip), vehicle: water) 108 % of control; (endpoint: mean survival time, dose: 50.0 mg/kg/injection, schedule: Q04DX003 (ip), vehicle: distilled water + Tween-80) 113 % of control. For the same compound, the T/C (endpoint: mean survival time, dose: 50.0 mg/kg/injection, schedule: Q04DX003 (ip), vehicle: water) is 120 % of control.
As to `COC(=O)C1(C)CCCC2(C)c3cc(OC)ccc3C=CC12` (centres undefined), the T/C is 104 % of control under setting [1], 106 % of control under setting [2] and 103 % of control under setting [3].
`Cc1c(C)c(C)c2c(c1C)CCC2O` (centres undefined): the T/C under setting [13] was 102 % of control and 105 % of control; the T/C under setting [14] was 97 % of control and 94 % of control; the T/C under setting [15] is 100 % of control [middle of 4 runs].
Turning to `O=P(Oc1ccc(OP(=O)(N2CC2)N2CC2)cc1)(N1CC1)N1CC1`, the T/C (endpoint: mean survival time, dose: 58.0 mg/kg/injection, schedule: Q01DX001 (ip), vehicle: saline) was 119 % of control; the T/C (endpoint: mean survival time, dose: 133.0 mg/kg/injection, schedule: Q01DX001 (ip), vehicle: saline) is 152 % of control; the T/C (endpoint: mean survival time, dose: 200.0 mg/kg/injection, schedule: Q01DX001 (ip), vehicle: saline) is 179 % of control; the T/C (endpoint: mean survival time, dose: 300.0 mg/kg/injection, schedule: Q01DX001 (ip), vehicle: saline) is 89 % of control.
In the case of `COc1cc(Cl)ccc1NC(=O)Nc1cc(C)on1`, the T/C was 100 % of control under setting [15], 95 % of control under setting [1] and 95 % of control under setting [2].
Consider `OCC1OC(n2nnc3cc[nH]c(=S)c32)C(O)C1O` (centres undefined), for which the T/C by setting is: (endpoint: mean survival time, dose: 11.9 mg/kg/injection, schedule: Q01DX005 (ip), vehicle: water) 96 % of control; (endpoint: mean survival time, dose: 23.8 mg/kg/injection, schedule: Q01DX005 (ip), vehicle: water) 113 % of control.
Regarding `OC(CC(O)(C(F)(F)F)C(F)(F)F)c1cccc(C(F)(F)F)c1` (centres undefined), the T/C runs as follows: (endpoint: mean survival time, dose: 132.0 mg/kg/injection, schedule: Q04DX003 (ip), vehicle: other) 98 % of control; (endpoint: mean survival time, dose: 200.0 mg/kg/injection, schedule: Q04DX003 (ip), vehicle: other) 94 % of control; (endpoint: mean survival time, dose: 300.0 mg/kg/injection, schedule: Q04DX003 (ip), vehicle: other) 93 % of control.
For the compound `CCOc1ccc2ccccc2c1C`, the T/C by setting is: (endpoint: mean survival time, dose: 100.0 mg/kg/injection, schedule: Q04DX002 (ip), vehicle: other) 120 % of control; (endpoint: mean survival time, dose: 200.0 mg/kg/injection, schedule: Q04DX002 (ip), vehicle: other) 112 % of control; (endpoint: mean survival time, dose: 400.0 mg/kg/injection, schedule: Q04DX002 (ip), vehicle: other) 104 % of control.
